Test results as given in article PMC6737244, “Cathelicidin Peptides Restrict Bacterial Growth via Membrane Perturbation and Induction of Reactive Oxygen Species” (mBio, 2019).
Ends that are not written are not given here.

Experiments:
P. aeruginosa = assay: Growth of cultures (OD600) with sublethal peptide; conditions: 20 nM, 2 h, CAMHB
E. coli UTI89 = assay: Differential gene expression after peptide exposure; type: cell-based, Escherichia coli; conditions: 30 nM, 5-min exposure
Experimental: To determine the mechanism by which sublethal concentrations of cathelicidins affect bacterial cell physiology, we sought to analyze gene expression prior to and after a 5-min exposure to 30 nM B22a. The chromosomal integron of V. cholerae contains hundreds of repeats and horizontally acquired genes of unknown function ([20][–][23]). Moreover, many of these genes are duplicated, which can further complicate interpreting gene expression patterns. We elected to examine peptide-induced expression changes in E. coli to simplify gene identification and assignment of potential functions. Significant changes in expression were identified for genes whose products participate in global processes such as protein synthesis, protein folding, protein secretion, intracellular pH, membrane modification, c-di-GMP production, peptidoglycan biosynthesis, respiration, and detoxification of reactive oxygen species (ROS) (Table 2). Perturbation of peptidoglycan synthesis was consistent with the membrane blebbing we observed following B22 and B22a treatment. Other notable changes included arnF, the product of which modifies the lipid A moiety of lipopolysaccharide (LPS) with 4-amino-4-deoxy-L-arabinose (L-Ara4N) to confer resistance to polymyxin and cationic antimicrobial peptides in E. coli and Salmonella enterica serotype Typhimurium ([24], [25]). c-di-GMP-dependent Psl exopolysaccharide production is part of the first line of defense against reactive oxygen species in P. aeruginosa ([26]). The respiratory chain is a major source of periplasmic ROS such as superoxide (O2^−) and hydrogen peroxide (H2O2) ([27]), and cytosolic flavoenzymes such as fumarate reductase (Frd) can generate O2^−, H2O2, and hydroxyl radical (^·OH) that damages membrane lipids, DNA, and proteins. ArcA is important for regulating bacterial resistance to ROS under aerobic conditions, and OxyR directly senses H2O2 to induce expression of a slew of genes, including ahpC and gshA, to counter H2O2 accumulation ([28], [29]).

E. cloacae = assay: Single-cell division time, time-lapse phase-contrast microscopy; type: cell-based, Enterobacter cloacae; conditions: 30 nM, first three generations
Experimental: To confirm that sublethal levels of cathelicidins affected the growth of Gram-negative bacteria, the division of single cells of E. coli and E. cloacae was monitored. Cells were seeded into microfluidic chambers and grown under continuous flow, and time-lapse phase-contrast microscopy was used to record the cell division time in the presence or absence of B22a.
Imaging of individual cells was conducted using the CellAsic microfluidic perfusion system (ONIX) with integrated temperature controller and B04A bacterial microfluidic plates (EMD Millipore, Billerica, MA). The CellAsic ONIX FG software (v 5.0.2.0) was used to control flow rate and deliver fresh medium with or without antimicrobial peptide (AMP). The chambers were loaded by perfusion of 50 μl of a 10^6 cells/ml bacterial suspension at 2 lb/in^2 for 15 s to prime the cells followed by 4 lb/in^2 for 15 s to trap the cells. The chamber was then rinsed at 1 lb/in^2 for 30 s followed by 5 lb/in^2 for 5 min. To quickly switch solutions, medium was perfused at 10 lb/in^2 for 10 s, and then flow was reduced to 2 lb/in^2 for the remainder of the imaging.

## FRKKLKKLFKKLSPVIPLLKLG [B22]
P. aeruginosa
  Initial growth of P. aeruginosa relative to control: significantly reduced

## FRKKLKKLFKKLSPVIPLLKLG-NH2 [B22a]
E. coli UTI89
  Log2 fold change, ahpC (UTI89_C0608): −1.35
  Log2 fold change, ansB (UTI89_C3346): −3.26
  Log2 fold change, arcA (UTI89_C5174): −1.55
  Log2 fold change, ardB (UTI89_C2011): −1.39
  Log2 fold change, arnF (yfbJ) (UTI89_C2541): 1.44
  Log2 fold change, arrD (UTI89_C1304): 2.56
  Log2 fold change, asnA (UTI89_C4299): −1.38
  Log2 fold change, asnS (UTI89_C1002): −1.19
  Log2 fold change, aspA (UTI89_C4736): −2.31
  Log2 fold change, ccmH (UTI89_C2472): −1.19
  Log2 fold change, citB (UTI89_C0624): −2.71
  Log2 fold change, cspA (UTI89_C4097): 1.44
  Log2 fold change, cspG (UTI89_C1051): 1.67
  Log2 fold change, cybC (UTI89_C4840): −2.73
  Log2 fold change, cyoD (UTI89_C0453): 1.80
  Log2 fold change, cysM (UTI89_C2754): −2.60
  Log2 fold change, dapC (UTI89_C3862): −1.97
  Log2 fold change, dcuA (UTI89_C4735): −2.63
  Log2 fold change, dgkA (UTI89_C4612): −1.71
  Log2 fold change, eno (UTI89_C3148): −2.02
  Log2 fold change, evgS (UTI89_C2702): 1.30
  Log2 fold change, fabA (UTI89_C1019): −1.48
  Log2 fold change, fdoG (UTI89_C4481): 1.13
  Log2 fold change, fimX (UTI89_C0338): 1.57
  Log2 fold change, frdA (UTI89_C4754): −1.78
  Log2 fold change, frdB (UTI89_C4753): −2.97
  Log2 fold change, fusA (UTI89_C3842): −1.22
  Log2 fold change, gadX (UTI89_C4048): 1.74
  Log2 fold change, gapA (UTI89_C1975): −2.34
  Log2 fold change, gmhB (UTI89_C0216): −2.02
  Log2 fold change, gnd (UTI89_C2302): −1.41
  Log2 fold change, gshA (UTI89_C3050): −1.92
  Log2 fold change, gsk (UTI89_C0505): 1.20
  Log2 fold change, holE (UTI89_C2044): 2.85
  Log2 fold change, hslJ (UTI89_C1622): −1.15
  Log2 fold change, manY (UTI89_C2016): −1.16
  Log2 fold change, marR (UTI89_C1833): 1.29
  Log2 fold change, mcbR (UTI89_C1669): 2.96
  Log2 fold change, mdoG (UTI89_C1172): 1.63
  Log2 fold change, mrcB (UTI89_C0165): 1.85
  Log2 fold change, mrp (UTI89_C2387): −1.64
  Log2 fold change, mtgA (UTI89_C3644): 1.90
  Log2 fold change, napC (UTI89_C2480): −2.52
  Log2 fold change, narP (UTI89_C2471): −2.02
  Log2 fold change, ompC (UTI89_C2497): −1.11
  Log2 fold change, ompT (UTI89_C0566): 1.11
  Log2 fold change, orf (UTI89_C0124): 1.89
  Log2 fold change, orf (UTI89_C1095): 1.47
  Log2 fold change, orf (UTI89_C1152): 1.40
  Log2 fold change, orf (UTI89_C1286): 1.09
  Log2 fold change, orf (UTI89_C3928): 1.10
  Log2 fold change, orf (UTI89_C4380): −1.48
  Log2 fold change, oxyR (UTI89_C4554): 1.11
  Log2 fold change, pflB (UTI89_C0974): −2.71
  Log2 fold change, ptsK (UTI89_C2748): −1.06
  Log2 fold change, rpmE (UTI89_C4521): 1.08
  Log2 fold change, rtcA (UTI89_C3920): −2.90
  Log2 fold change, sdaB (UTI89_C3168): −3.16
  Log2 fold change, sdaC (UTI89_C3167): −2.21
  Log2 fold change, secB (UTI89_C4151): −2.45
  Log2 fold change, secY (UTI89_C3746): −1.36
  Log2 fold change, serS (UTI89_C0908): −2.29
  Log2 fold change, torY (UTI89_C2077): 1.03
  Log2 fold change, tpiA (UTI89_C4503): −1.16
  Log2 fold change, uspE (UTI89_C1604): 1.28
  Log2 fold change, wbgM (UTI89_C2303): 1.29
  Log2 fold change, xdhC (UTI89_C3253): −2.37
  Log2 fold change, yaaY (UTI89_C0026): 1.32
  Log2 fold change, yacH (UTI89_C0130): 1.39
  Log2 fold change, yaiS (UTI89_C2239): 1.92
  Log2 fold change, ybcS1 (UTI89_C1303): 2.14
  Log2 fold change, ybfN (UTI89_C0686): 1.22
  Log2 fold change, ybjD (UTI89_C0880): 1.31
  Log2 fold change, ycaD (UTI89_C0972): −1.66
  Log2 fold change, yciL (UTI89_C1537): −1.27
  Log2 fold change, ydeH (UTI89_C1760): 4.38
  Log2 fold change, ydiU (UTI89_C1899): 1.27
  Log2 fold change, yecR (UTI89_C2105): −2.29
  Log2 fold change, yehE (UTI89_C2386): −1.09
  Log2 fold change, yfaE (UTI89_C2517): −2.34
  Log2 fold change, yfbR (UTI89_C2573): −1.89
  Log2 fold change, yfcD (UTI89_C2583): −1.88
  Log2 fold change, yfeK (UTI89_C2753): −1.41
  Log2 fold change, ygdI (UTI89_C3181): 1.30
  Log2 fold change, ygdI (UTI89_C3182): 1.31
  Log2 fold change, ygdR (UTI89_C3236): 1.12
  Log2 fold change, yghU (UTI89_C3411): −2.15
  Log2 fold change, yhbQ (UTI89_C3582): −1.70
  Log2 fold change, yhbW (UTI89_C3587): −1.14
  Log2 fold change, yhcO (UTI89_C3670): 1.80
  Log2 fold change, yhdL (UTI89_C3736): 1.09
  Log2 fold change, yjbK (UTI89_C4616): 1.10
  Log2 fold change, yjcC (UTI89_C4647): −1.25
  Log2 fold change, yjeH (UTI89_C4739): −1.27
  Log2 fold change, yjeI (UTI89_C4742): −1.76
  Log2 fold change, yjgF (ridA) (UTI89_C4848): 2.24
  Log2 fold change, ykgH (UTI89_C0333): −2.93
  Log2 fold change, ymdC (UTI89_C1169): 1.04
  Log2 fold change, ymgA (UTI89_C1348): 1.77
  Log2 fold change, ynfJ (UTI89_C1779): −1.82
  Log2 fold change, ynhG (UTI89_C1870): 1.34
  Log2 fold change, yqgD (UTI89_C3330): 1.11
  Log2 fold change, yrdA (UTI89_C3724): 1.02
  Log2 fold change, yrdE (UTI89_C3686): −2.10
E. cloacae
  Cell division time: increased twofold
